Patent US20040176431A1, “Antiproliferative 2-(sulfo-phenyl)-aminothiazole derivatives and pharmaceutical compositions, and methods for their use” (Pfizer, Inc., priority 2003, published 2004)

Molecular target: T1, CDK4/cyclin D3 (Homo sapiens, UniProt P11802)
T1 construct: made in house; host or cells: insect cells (baculovirus co-infection)
Assay: Inhibition of CDK4/Cyclin D retinoblastoma kinase activity;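 on % Inhib CDK4/D @ 1 μM: relative to DMSO control wells without compound minus no-enzyme background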
Type: biochemical
Details: for inhibition at 0.1 µM / % Inhib CDK4/D @ 0.1 μM: test compound at 0.1 μM; for inhibition at 0.1 µM: read-out: % Inhib CDK4/D @ 0.1 μM; for inhibition at 1 µM / % Inhib CDK4/D @ 1 μM: test compound at 1 μM (head line shifted: 'mM' printed beside 'Structure'); for inhibition at 1 µM: read-out: % Inhib CDK4/D @ 1 μM; for inhibition at 0.03 µM / % Inhib CDK4/D @ 0.03: test compound at 0.03 (unit cell empty, head line shifted; μM); for inhibition at 0.03 µM: read-out: % Inhib CDK4/D @ 0.03
Procedure, shortened: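 Human CDK4 with truncated cyclin D3 (1-264) from baculovirus-infected insect cells, 5 nM, phosphorylating His-tagged Rb fragment (386-928) with 25 μM [32P/33P]ATP in pH 7.4 HEPES/MgCl2, 2% DMSO, 30° C., 20 min (60 min for tight binders). Filter capture, phosphorimager; apparent Ki from competitive or tight-binding competitive fits.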

T1 sequence (P11802 whole entry): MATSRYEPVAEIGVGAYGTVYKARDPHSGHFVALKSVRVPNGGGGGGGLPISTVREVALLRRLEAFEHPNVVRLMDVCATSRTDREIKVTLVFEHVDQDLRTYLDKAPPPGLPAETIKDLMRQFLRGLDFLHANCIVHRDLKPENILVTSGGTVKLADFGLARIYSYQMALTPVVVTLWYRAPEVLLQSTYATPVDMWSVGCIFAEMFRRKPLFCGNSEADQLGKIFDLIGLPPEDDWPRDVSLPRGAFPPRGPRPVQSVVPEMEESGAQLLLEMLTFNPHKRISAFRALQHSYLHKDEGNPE
T1 sequence (P30281 1-264 partner limits assumed): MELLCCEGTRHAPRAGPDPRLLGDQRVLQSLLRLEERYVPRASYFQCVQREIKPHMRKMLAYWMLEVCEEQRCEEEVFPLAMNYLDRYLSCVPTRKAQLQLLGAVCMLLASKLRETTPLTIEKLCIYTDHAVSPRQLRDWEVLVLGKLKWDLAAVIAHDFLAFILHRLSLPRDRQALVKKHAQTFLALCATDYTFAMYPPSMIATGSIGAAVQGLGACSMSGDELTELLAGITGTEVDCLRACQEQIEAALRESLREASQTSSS

| SMILES | inhibition at 0.1 µM [%] | inhibition at 1 µM [%] | inhibition at 0.03 µM [%] | % Inhib CDK4/D @ 0.1 μM [%] | % Inhib CDK4/D @ 0.03 [%] | % Inhib CDK4/D @ 1 μM [%] |
| --- | --- | --- | --- | --- | --- | --- |
| COC(=O)/C=C/C[S+]([O-])c1cccc(Nc2nc(N)c(C(=O)c3c(Cl)cccc3Cl)s2)c1 (stereo not drawn) [DD(124)] | 34 | 38.8 | 2.1 |  |  |  |
| Nc1nc(Nc2cccc([S+]([O-])CCCO)c2)sc1C(=O)c1c(Cl)cccc1Cl (stereo not drawn) [DD(125)] | 55 | 61.5 | 15 |  |  |  |
| C=CCC[S+]([O-])c1cccc(Nc2nc(N)c(C(=O)c3c(Cl)cccc3Cl)s2)c1 (stereo not drawn) [DD(126)] | 28 | 43.1 | 7.5 |  |  |  |
| Nc1nc(Nc2cccc([S+]([O-])CCN3CCCC3)c2)sc1C(=O)c1c(Cl)cccc1Cl (stereo not drawn) [DD(127)] | 34 | 49.6 | -4.3 |  |  |  |
| Nc1nc(Nc2cccc([S+]([O-])Cc3ncon3)c2)sc1C(=O)c1c(Cl)cccc1Cl (stereo not drawn) [DD(128)] | 54 | 49.9 | 12 |  |  |  |
| Nc1nc(Nc2cccc([S+]([O-])CC3CNC(=O)O3)c2)sc1C(=O)c1c(Cl)cccc1Cl (stereo not drawn) [DD(129)] | 33 | 33.3 | 19 |  |  |  |
| CN(C)CCC[S+]([O-])c1cccc(Nc2nc(N)c(C(=O)c3c(Cl)cccc3Cl)s2)c1 (stereo not drawn) [DD(130)] | 41 | 56 | 12 |  |  |  |
| Nc1nc(Nc2cccc([S+]([O-])CCN3CCCCC3)c2)sc1C(=O)c1c(Cl)cccc1Cl (stereo not drawn) [DD(131)] | 32 | 57 | 13 |  |  |  |
| Nc1nc(Nc2cccc([S+]([O-])CC3CO3)c2)sc1C(=O)c1c(Cl)cccc1Cl (stereo not drawn) [DD(132)] | 64 | 62 | 44 |  |  |  |
| CC(C)CC[S+]([O-])c1cccc(Nc2nc(N)c(C(=O)c3c(Cl)cccc3Cl)s2)c1 (stereo not drawn) [DD(133)] | 28 | 24.3 | 14 |  |  |  |
| COCC[S+]([O-])c1cccc(Nc2nc(N)c(C(=O)c3c(Cl)cccc3Cl)s2)c1 (stereo not drawn) [DD(134)] | 48 | 49.9 | 8.4 |  |  |  |
| Nc1nc(Nc2cccc([S+]([O-])CC(=O)Nc3ccccc3)c2)sc1C(=O)c1c(Cl)cccc1Cl (stereo not drawn) [DD(135)] | 42 | 51.9 | 16 |  |  |  |
| Nc1nc(Nc2cccc([S+]([O-])CC3CC3)c2)sc1C(=O)c1c(Cl)cccc1Cl (stereo not drawn) [DD(136)] | 27 | 44.9 | 14 |  |  |  |
| COc1cccc(C[S+]([O-])c2cccc(Nc3nc(N)c(C(=O)c4c(Cl)cccc4Cl)s3)c2)c1 (stereo not drawn) [DD(137)] | 22 | 36.7 | -1.7 |  |  |  |
| Nc1nc(Nc2cccc([S+]([O-])CC3CCCO3)c2)sc1C(=O)c1c(Cl)cccc1Cl (stereo not drawn) [DD(138)] | 34 | 63.8 | 2.9 |  |  |  |
| CN1CCCC1CC[S+]([O-])c1cccc(Nc2nc(N)c(C(=O)c3c(Cl)cccc3Cl)s2)c1 (stereo not drawn) [DD(139)] | 53 | 77.6 | 17 |  |  |  |
| CC1(C[S+]([O-])c2cccc(Nc3nc(N)c(C(=O)c4c(Cl)cccc4Cl)s3)c2)CO1 (stereo not drawn) [DD(140)] | 41 | 68 | 25 |  |  |  |
| NC(=O)C[S+]([O-])c1cccc(Nc2nc(N)c(C(=O)c3c(Cl)cccc3Cl)s2)c1 (stereo not drawn) [DD(141)] | 71 | 64.5 | 36 |  |  |  |
| CCOC(=O)CC[S+]([O-])c1cccc(Nc2nc(N)c(C(=O)c3c(Cl)cccc3Cl)s2)c1 (stereo not drawn) [DD(142)] | 36 | 39.3 | -2.6 |  |  |  |
| CC(C)OC(=O)C[S+]([O-])c1cccc(Nc2nc(N)c(C(=O)c3c(Cl)cccc3Cl)s2)c1 (stereo not drawn) [DD(143)] | 24 | 36.7 | 15 |  |  |  |
| CC(C)=CC[S+]([O-])c1cccc(Nc2nc(N)c(C(=O)c3c(Cl)cccc3Cl)s2)c1 (stereo not drawn) [DD(144)] | 12 | 27.7 | -66 |  |  |  |
| CCC[S+]([O-])c1cccc(Nc2nc(N)c(C(=O)c3c(Cl)cccc3Cl)s2)c1 (stereo not drawn) [DD(145)] | 32 | 42.3 | 4.2 |  |  |  |
| COC(=O)C[S+]([O-])c1cccc(Nc2nc(N)c(C(=O)c3c(Cl)cccc3Cl)s2)c1 (stereo not drawn) [DD(146)] | 53 | 47.6 | 15 |  |  |  |
| CN1CCCC(C[S+]([O-])c2cccc(Nc3nc(N)c(C(=O)c4c(Cl)cccc4Cl)s3)c2)C1 (stereo not drawn) [DD(147)] | 38 | 39.6 | 19 |  |  |  |
| NC(=O)CC[S+]([O-])c1cccc(Nc2nc(N)c(C(=O)c3c(Cl)cccc3Cl)s2)c1 (stereo not drawn) [DD(148)] | 53 | 65.5 | 35 |  |  |  |
| Nc1nc(Nc2cccc([S+]([O-])CCO)c2)sc1C(=O)c1c(Cl)cccc1Cl (stereo not drawn) [DD(149)] | 55 | 57.7 | 33 |  |  |  |

Next, values leading:

| inhibition at 0.1 µM [%] | inhibition at 1 µM [%] | inhibition at 0.03 µM [%] | % Inhib CDK4/D @ 0.1 μM [%] | % Inhib CDK4/D @ 0.03 [%] | % Inhib CDK4/D @ 1 μM [%] | SMILES |
| --- | --- | --- | --- | --- | --- | --- |
| 21 | 10.4 | 5.6 |  |  |  | CC(C)CCC[S+]([O-])c1cccc(Nc2nc(N)c(C(=O)c3c(Cl)cccc3Cl)s2)c1 (stereo not drawn) [DD(150)] |
| 9.2 | 34.3 | 16 |  |  |  | CC(C)CCOC(=O)C[S+]([O-])c1cccc(Nc2nc(N)c(C(=O)c3c(Cl)cccc3Cl)s2)c1 (stereo not drawn) [DD(151)] |
| 28 | 57.3 | 21 |  |  |  | CN(C)CC[S+]([O-])c1cccc(Nc2nc(N)c(C(=O)c3c(Cl)cccc3Cl)s2)c1 (stereo not drawn) [DD(152)] |
| 44 | 51.8 | 15 |  |  |  | CCOCC[S+]([O-])c1cccc(Nc2nc(N)c(C(=O)c3c(Cl)cccc3Cl)s2)c1 (stereo not drawn) [DD(153)] |
| 60 | 73.5 | 31 |  |  |  | Nc1nc(Nc2cccc([S+]([O-])CC(O)CO)c2)sc1C(=O)c1c(Cl)cccc1Cl (stereo not drawn) [DD(154)] |
| 35 | 59.6 | 25 |  |  |  | Nc1nc(Nc2cccc([S+]([O-])Cc3ccncc3)c2)sc1C(=O)c1c(Cl)cccc1Cl (stereo not drawn) [DD(155)] |
| 25 | 15.1 | 17 |  |  |  | CCC(CC)C[S+]([O-])c1cccc(Nc2nc(N)c(C(=O)c3c(Cl)cccc3Cl)s2)c1 (stereo not drawn) [DD(156)] |
| 42 | 59.7 | 21 |  |  |  | CC(=O)OCC[S+]([O-])c1cccc(Nc2nc(N)c(C(=O)c3c(Cl)cccc3Cl)s2)c1 (stereo not drawn) [DD(157)] |
| 27 | 35 | 22 |  |  |  | CC(C)OC(=O)CC[S+]([O-])c1cccc(Nc2nc(N)c(C(=O)c3c(Cl)cccc3Cl)s2)c1 (stereo not drawn) [DD(158)] |
| 25 | 44 | 36 |  |  |  | Nc1nc(Nc2cccc([S+]([O-])CCN3CCOCC3)c2)sc1C(=O)c1c(Cl)cccc1Cl (stereo not drawn) [DD(159)] |
| 19 | 49 | 8.1 |  |  |  | CC(C)(CO)C[S+]([O-])c1cccc(Nc2nc(N)c(C(=O)c3c(Cl)cccc3Cl)s2)c1 (stereo not drawn) [DD(160)] |
|  | 9.1 |  | −7 | −9.2 |  | CCN(CC)C(=O)CS(=O)(=O)c1ccc(Nc2nc(N)c(C(=O)c3c(Cl)cccc3Cl)s2)cc1 [DD(161)] |
|  |  |  | 13 | 5.8 | 14 | Cc1noc(C)c1CS(=O)(=O)c1ccc(Nc2nc(N)c(C(=O)c3c(Cl)cccc3Cl)s2)cc1 [DD(162)] |
| 27 | 52.8 | -5.8 |  |  |  | CC(CN(C)C)CS(=O)(=O)c1ccc(Nc2nc(N)c(C(=O)c3c(Cl)cccc3Cl)s2)cc1 (stereo not drawn) [DD(163)] |
|  |  |  | 8.6 | −7.4 | −6.9 | COC(=O)/C=C/CS(=O)(=O)c1ccc(Nc2nc(N)c(C(=O)c3c(Cl)cccc3Cl)s2)cc1 [DD(164)] |
|  |  |  | 10 | −1.8 | 34.3 | Nc1nc(Nc2ccc(S(=O)(=O)CCCO)cc2)sc1C(=O)c1c(Cl)cccc1Cl [DD(165)] |
| 14 |  |  |  | 3.5 | 14.5 | C=CCCS(=O)(=O)c1ccc(Nc2nc(N)c(C(=O)c3c(Cl)cccc3Cl)s2)cc1 [DD(166)] |
|  |  |  | 17 | −2.5 | 0.8 | Nc1nc(Nc2ccc(S(=O)(=O)CCN3CCCC3)cc2)sc1C(=O)c1c(Cl)cccc1Cl [DD(167)] |
|  | 30.7 |  | 7.8 | 8.3 |  | Nc1nc(Nc2ccc(S(=O)(=O)Cc3ncon3)cc2)sc1C(=O)c1c(Cl)cccc1Cl [DD(168)] |
|  |  |  | 33 | 44 | 36.4 | Nc1nc(Nc2ccc(S(=O)(=O)CC3CNC(=O)O3)cc2)sc1C(=O)c1c(Cl)cccc1Cl (stereo not drawn) [DD(169)] |
| 18 | 25.8 | 22 |  |  |  | CN(C)CCCS(=O)(=O)c1ccc(Nc2nc(N)c(C(=O)c3c(Cl)cccc3Cl)s2)cc1 [DD(170)] |
| 21 |  |  |  | −29 | 17.1 | Nc1nc(Nc2ccc(S(=O)(=O)CCN3CCCCC3)cc2)sc1C(=O)c1c(Cl)cccc1Cl [DD(171)] |
